Assay results as given in article PMC12394750, “2H-1,4-Benzoxazin-3(4H)-one linked 1,2,3-triazole derivatives and their study on inducing DNA damage in tumor cells” (Frontiers in Pharmacology, 2025).
Blank lines part the entries; values can stand above or below the molecule they belong to.

Tests used:
[1] = test system: Huh-7 (hepatocellular carcinoma); assay: CCK-8 cell viability / IC50, Huh-7; format: cell-based, human; details: 72 h; for Activity against Huh-7 cells (in words) / viability at 50 µM: 50 μM, CCK-8; for viability at 50 µM / IC50: Homo sapiens, Huh-7; for IC50: CCK-8 dose-response
Protocol: (§1) To assess the cytotoxic potential of the newly synthesized compounds c1–c20, a panel of human tumor cell lines—including Huh-7 (hepatocellular carcinoma), MCF-7 (breast cancer), and A549 (lung cancer)—was treated with each compound at a concentration of 50 μM for 72 h. Cell viability and cytotoxicity were evaluated using the CCK-8 assay.
(§2) Cells were cultured in DMEM or RPMI 1640 medium with 10% FBS and 1% penicillin/streptomycin at 37 °C and 5% CO2. A CCK-8 assay was performed with several human cancer cell lines, including A549, Huh-7, MCF-7, HCT-116, and SKOV3, according to the instructions. Cells were plated at a density of 1,000–3,000 cells per well in a 96-well plate. After 24-h incubation, cells were treated with 40 μM compounds for 48 h or 50 μM compounds for 72 h. Cell viability was measured by adding 10 μL per well of CCK-8 reagent, which was dissolved in the cell culture medium, for 1 hour. Absorbance was taken at 450 nm using a microplate reader. The IC50 values of the compounds were further determined. Cells were seeded in a 96-well plate at a density of 1 × 10^3 cells/well. After adhering overnight, cells treated with […] concentrations (10 μM, 20 μM, 40 µM, or 80 μM) were used to draw the dose–response curve, and IC50 values were calculated by GraphPad Prism software. The CCK-8 assay was performed in triplicate, and each experiment was repeated at least three times. The results were expressed as mean ± SEM, and P < 0.05 was considered statistically significant.

MCF-7 (breast cancer) = assay: CCK-8 cell viability, MCF-7; format: cell-based; details: Homo sapiens, MCF7, 72 h
Protocol: as §1, §2

A549 (lung cancer) = assay: CCK-8 cell viability, A549; format: cell-based; details: Homo sapiens, 72 h
Protocol: as §1, §2

[2] = CCK-8 cell viability, L02; format: cell-based; details: human, L02 normal liver cells

IC50 [1]: 35.1 ± 1.84 µM
Compound: O=C1COc2cc(NC(=O)c3cccc(-c4cn(Cc5cccc(Br)c5)nn4)c3)ccc2N1 [compound c17, 3-(1-(3-bromobenzyl)-1H-1,2,3-triazol-4-yl)-N-(3-oxo-3,4-dihydro-2H-benzo[b][1,4]oxazin-7-yl)benzamide]
viability at 50 µM [1]: 19.2 ± 1.88%
viability at 50 µM (MCF-7 (breast cancer)): 90.41 ± 0.51%
viability at 50 µM (A549 (lung cancer)): 71.3 ± 2.9%
viability at 72 h, 50 µM [2]: 111.7 ± 0.92%

IC50 [1]: > 50 µM
Compound: O=C1COc2cc(NC(=O)c3cccc(-c4cn(Cc5ccc(Br)cc5F)nn4)c3)ccc2N1 [compound c13, 3-(1-(4-bromo-2-fluorobenzyl)-1H-1,2,3-triazol-4-yl)-N-(3-oxo-3,4-dihydro-2H-benzo[b][1,4]oxazin-7-yl)benzamide]
viability at 50 µM [1]: 17.7 ± 1.58%
viability at 50 µM (MCF-7 (breast cancer)): 98.9 ± 2.03%
viability at 50 µM (A549 (lung cancer)): 78.3 ± 2.72%
viability at 72 h, 50 µM [2]: 115 ± 1.35%

IC50 [1]: 36.19 ± 0.09 µM
Compound: O=C1COc2cc(NC(=O)c3cccc(-c4cn(Cc5cccc(I)c5)nn4)c3)ccc2N1 [compound c19, 3-(1-(3-iodobenzyl)-1H-1,2,3-triazol-4-yl)-N-(3-oxo-3,4-dihydro-2H-benzo[b][1,4]oxazin-7-yl)benzamide]
viability at 50 µM [1]: 28.5 ± 3.64%
viability at 50 µM (MCF-7 (breast cancer)): 97.2 ± 2.06%
viability at 50 µM (A549 (lung cancer)): 80.5 ± 3.81%
viability at 72 h, 50 µM [2]: 103.4 ± 0.62%

IC50 [1]: 38.48 ± 0.24 µM
Compound: O=C1COc2cc(NC(=O)c3cccc(-c4cn(Cc5cccc(C(F)(F)F)c5)nn4)c3)ccc2N1 [compound c8, N-(3-oxo-3,4-dihydro-2H-benzo[b][1,4]oxazin-7-yl)-3-(1-(3-(trifluoromethyl)benzyl)-1H-1,2,3-triazol-4-yl)benzamide]
viability at 50 µM [1]: 13 ± 0.72%
viability at 50 µM (MCF-7 (breast cancer)): 101 ± 4.5%
viability at 50 µM (A549 (lung cancer)): 86.1 ± 5.46%
viability at 72 h, 50 µM [2]: 103 ± 3.1%

Continued, molecule first:

Compound: N#Cc1ccccc1Cn1cc(-c2cccc(C(=O)Nc3ccc4c(c3)OCC(=O)N4)c2)nn1 [compound c7, 3-(1-(2-cyanobenzyl)-1H-1,2,3-triazol-4-yl)-N-(3-oxo-3,4-dihydro-2H-benzo[b][1,4]oxazin-7-yl)benzamide]
Activity against Huh-7 cells (in words) [1]: limited activity
viability at 50 µM [1]: 89.1 ± 3.02%
viability at 50 µM (MCF-7 (breast cancer)): 89.2 ± 3.16%
viability at 50 µM (A549 (lung cancer)): 87.7 ± 6.4%
viability at 72 h, 50 µM [2]: 101 ± 3.14%

Compound: Cc1cc(C)cc(Cn2cc(-c3cccc(C(=O)Nc4ccc5c(c4)OCC(=O)N5)c3)nn2)c1 [compound c6, 3-(1-(3,5-dimethylbenzyl)-1H-1,2,3-triazol-4-yl)-N-(3-oxo-3,4-dihydro-2H-benzo[b][1,4]oxazin-7-yl)benzamide]
viability at 50 µM [1]: 25.6 ± 1.32%
IC50 [1]: > 50 µM
viability at 50 µM (MCF-7 (breast cancer)): 84.8 ± 3.5%
viability at 50 µM (A549 (lung cancer)): 81.6 ± 5.09%
viability at 72 h, 50 µM [2]: 99.7 ± 2.5%

Compound: O=C1COc2cc(NC(=O)c3cccc(-c4cn(Cc5ccccc5F)nn4)c3)ccc2N1 [compound c3, 3-(1-(2-fluorobenzyl)-1H-1,2,3-triazol-4-yl)-N-(3-oxo-3,4-dihydro-2H-benzo[b][1,4]oxazin-7-yl)benzamide]
viability at 50 µM [1]: 12.1 ± 0.58%
IC50 [1]: 43.41 ± 0.08 µM
viability at 50 µM (MCF-7 (breast cancer)): 108.3 ± 0.68%
viability at 50 µM (A549 (lung cancer)): 92.2 ± 3.87%
viability at 72 h, 50 µM [2]: 101 ± 3.04%

Compound: O=c1[nH]cc(F)c(=O)[nH]1 [5-fluorouracil, reference compound]
IC50 [1]: 21 ± 6.37 µM

Compound: O=C1COc2cc(NC(=O)c3cccc(-c4cn(Cc5ccccc5Br)nn4)c3)ccc2N1 [compound c12, 3-(1-(2-bromobenzyl)-1H-1,2,3-triazol-4-yl)-N-(3-oxo-3,4-dihydro-2H-benzo[b][1,4]oxazin-7-yl)benzamide]
Activity against Huh-7 cells (in words) [1]: limited activity
viability at 50 µM [1]: 86.1 ± 1.69%
viability at 50 µM (MCF-7 (breast cancer)): 87.15 ± 0.55%
viability at 50 µM (A549 (lung cancer)): 87.7 ± 3.88%
viability at 72 h, 50 µM [2]: 105 ± 2.71%

Compound: O=C1COc2cc(NC(=O)c3cccc(-c4cn(Cc5c(F)cccc5Cl)nn4)c3)ccc2N1 [compound c15, 3-(1-(2-chloro-6-fluorobenzyl)-1H-1,2,3-triazol-4-yl)-N-(3-oxo-3,4-dihydro-2H-benzo[b][1,4]oxazin-7-yl)benzamide]
Activity against Huh-7 cells (in words) [1]: limited activity
viability at 50 µM [1]: 75.8 ± 2.97%
viability at 50 µM (MCF-7 (breast cancer)): 84.6 ± 1.32%
viability at 50 µM (A549 (lung cancer)): 86.5 ± 2.25%
viability at 72 h, 50 µM [2]: 113.7 ± 1.08%
